According to patent US12061202B2, “Compositions and methods for bioluminescent detection using multifunctional probes” (Promega Corporation, priority 2019, dated 2024):

Key:
Type in all cases: cell-based
HCT116 = test: Release of labeled proteins from dead cells, NanoBiT bioluminescence, HCT116; conditions: final labeling probe concentration 10 μM
Method: (§1) Next, the bifunctional labeling probe was thawed at room temperature and mixed. The probe was generally contained in DMSO. The bifunctional probe was added to the cells at a final concentration between about 0.5-10 μM. The cells were then mixed by gently pipetting and incubated for 30 minutes at 37° C. To inactivate unreactive free labeling probe, a 10× volume of pre-warmed (37° C.) cell culture medium containing 10% FBS was added, and the cells incubated for additional 5 minutes. The labeled cells were then spun down, and the labeling media removed. The cells were resuspended in fresh cell culture media at the concentration required for the experiment.
(§2) In some embodiments, one or more components of the NanoBiT® system can be used for measuring cell death of pre-labeled cell population in mixed cell cultures. […]
(§3) Labeled cells (1,250-10,000 cells/well) were plated with experimental treatment conditions (e.g., drug, effector cells, etc.) in 50 μl of appropriate medium. Wells without cells were included as negative controls to determine background luminescence in the media. […]
(§4) About 50 μl of prepared Detection Reagent was added into all assay wells and negative (media) control wells. […] About 25 μL of prepared substrate was added to the assay wells, mixed, and luminescence was read.

SKBR3 = test: Release of labeled proteins from dead cells, NanoBiT bioluminescence, SKBR3; conditions: final labeling probe concentration 10 μM
Method: as §1, §2, §3, §4

various cell types = test: Labeling of various cell types with bifunctional probe, NanoBiT detection (FIG. 2B)
Source text: As shown in FIGS. 2A-2B, a variety of cells were labeled with the bifunctional probes of the present disclosure. FIG. 2A is a representative schematic diagram of a method used to label the various target cells identified in FIG. 2B. […] Robust luminescence was detected from the labeled proteins released after cell death, which were quantified using the NanoBiT® system, while little luminescence was detected in the media and live cells.
In accordance with these experiments, the various cell types tested were collected by centrifugation for 5 mins at 300 g followed by aspiration of the media and resuspension in PBS. The bifunctional probe was then added to the media and allowed to incubate for 30 mins at 37° C. Pre-warmed (37° C.) complete media containing 10% serum was then added to the cells and incubated for 5 mins at 37° C. The labeled cells were then collected by centrifugation for 5 mins at 300 g and excess media was removed, and the labeled cells were then resuspended in the desired media. NanoBiT® detection reagents were then added to the labeled cells and allowed to incubate for 30 mins at 37° C. prior to reading luminescence (RLUs).

Raji cells [1] = test: Cell viability after labeling, CellTiter-Glo, Raji
Method: (§5) For assay optimization, labeling the cells at different probe concentrations and setting up cell titration curves can be advantageous. To evaluate effect of labeling on cell viability, different viability/toxicity assays can also be used. Here, an example of assay optimization is provided using Raji and K562 cells. […] However, labeling efficiency, toxicity, assay linearity, and assay window differed depending on the cell line and labeling conditions. […] Labeling K562 at 2 μM extended linear range of the assay up to 20,000 cells/well, however assay window decreased from 18-fold to 7-8-fold.
(§6) No labeling control was included for toxicity evaluation. After labeling, the cells were resuspended in appropriate medium, counted, and plated into wells of a 96-well plate at two-fold serial dilution starting from 20,000 cells/well. The Detection Reagents with or without digitonin were added as described above, and the plates were placed into a tissue culture incubator. After incubation, Nano-Glo® Luciferase Assay substrate was added to the samples, and luminescence was read. After reading luminescence, an equal volume of CellTiter-Glo was added to the samples to measure changes in viability. […] The linear range of the assay is underlined. Dead/Live is the ratio between luminescence signal of dead and live cells calculated after assay background subtraction (media control).

A431 = test: Release of labeled proteins from dead cells, NanoBiT bioluminescence, A431; conditions: final labeling probe concentration 10 μM
Method: as §1, §2, §3, §4

Raji cells [2] = test: Release of labeled proteins from dead cells, NanoBiT bioluminescence, Raji; conditions: for Dead/Live at 5,000 cells/well: final labeling probe concentration 2 μM; for Dead, RLUs: dead (digitonin treated) cells; for Live, RLUs: live cells; for Dead/Live: ratio after background subtraction
Method: as §1
In some embodiments, one or more components of the NanoBiT® system can be used for measuring cell death of pre-labeled cell population in mixed cell cultures. Here, an exemplary protocol is described for using this assay in 96-well plates in […]: 50 μl of sample+50 μl of Detection Reagent+25 μl of Nano-Glo® Luciferase Assay substrate.
Labeled cells (1,250-10,000 cells/well) were plated with experimental treatment conditions (e.g., drug, effector cells, etc.) in 50 μl of appropriate medium. Wells without cells were included as negative controls to determine background luminescence in the media. Separate wells were included with pre-labeled cells for determining maximum release of labeled proteins. Detection Reagents were assembled: about 1 ml of Detection Reagent buffer (2×) was combined with about 1.25 μl of Detection Component 1 and 1.25 μl of Detection Component 2. If maximum release determination was needed, the required amount of prepared Detection Reagent (50 μl/per sample) was removed, and digitonin at 0.12 mg/ml concentration added (for example, add 6 μl to 1 ml of Detection Reagent).
About 50 μl of prepared Detection Reagent was added into all assay wells and negative (media) control wells. Detection Reagent with Digitonin was added into control wells for determining maximum release. The cells were placed into a tissue culture incubator, and the treatment continued up to 24 hours. Nano-Glo® Luciferase Assay Substrate was prepared by diluting (1:50) substrate into assay medium. The assay plate was then removed from the tissue culture incubator and equilibrated to room temperature for about 5 mins. About 25 μL of prepared substrate was added to the assay wells, mixed, and luminescence was read.
as §6

K562 cells = test: Cell viability after labeling, CellTiter-Glo, K562; conditions: labeled at 2 and 5 μM
Method: as §5, §6

O=C(NCCOCCOCCCCCCCl)c1ccc(C(=O)ON2C(=O)CCC2=O)cc1 [Labeling Probe, 2,5-dioxopyrrolidin-1-yl 4-((2-(2-((6-chlorohexyl)oxy)ethoxy)ethyl)carbamoyl)benzoate]
Dead/Live at 5,000 cells/well (HCT116; at 4 h): 8.1 | Dead/Live at 5,000 cells/well (HCT116; at 24 h): 6.7 | Dead/Live at 5,000 cells/well (SKBR3; at 4 h): 10.1 | Dead/Live at 5,000 cells/well (SKBR3; at 24 h): 10.9 | uptake of probe by cells (various cell types): successfully taken up by every cell tested | effect on cell viability (Raji cells [1]; labeling concentration 1 μM): without significant effect on cell viability | decrease in cell viability as measured by CellTiter-Glo (Raji cells [1]; labeling with 5 μM): more than 40% | Dead/Live at 5,000 cells/well (A431; at 4 h): 7.4 | Dead/Live at 5,000 cells/well (A431; at 24 h): 6.2 | Dead/Live at 5,000 cells/well (Raji cells [2]; at 4 h): 35.4 | Dead/Live at 5,000 cells/well (Raji cells [2]; at 24 h): 21.7 | assay window (Raji cells [2]; labeling concentration 1 μM): > 5 fold | increase in luminescence signal in live cells from media only control (Raji cells [2]; labeling with 5 μM): > 2 fold | Dead, RLUs (Raji cells [2]; probe 1 μM, 1,250 cells/well): 112,901 RLUs | Live, RLUs (Raji cells [2]; probe 1 μM, 1,250 cells/well): 71,937 RLUs | Dead/Live (Raji cells [2]; probe 1 μM, 1,250 cells/well): 6.0 | Dead, RLUs (Raji cells [2]; probe 1 μM, 2,500 cells/well): 164,403 RLUs | Live, RLUs (Raji cells [2]; probe 1 μM, 2,500 cells/well): 78,455 RLUs | Dead/Live (Raji cells [2]; probe 1 μM, 2,500 cells/well): 6.8 | Dead, RLUs (Raji cells [2]; probe 1 μM, 5,000 cells/well): 257,879 RLUs | Live, RLUs (Raji cells [2]; probe 1 μM, 5,000 cells/well): 88,466 RLUs | Dead/Live (Raji cells [2]; probe 1 μM, 5,000 cells/well): 7.9 | Dead, RLUs (Raji cells [2]; probe 1 μM, 10,000 cells/well): 403,731 RLUs | Live, RLUs (Raji cells [2]; probe 1 μM, 10,000 cells/well): 107,531 RLUs | Dead/Live (Raji cells [2]; probe 1 μM, 10,000 cells/well): 7.8 | Dead, RLUs (Raji cells [2]; probe 1 μM, 20,000 cells/well): 731,355 RLUs | Live, RLUs (Raji cells [2]; probe 1 μM, 20,000 cells/well): 134,572 RLUs | Dead/Live (Raji cells [2]; probe 1 μM, 20,000 cells/well): 9.4 | Live, RLUs (Raji cells [2]; probe 5 μM, 1,250 cells/well): 210,695 RLUs | Dead/Live (Raji cells [2]; probe 5 μM, 1,250 cells/well): 7.7 | Dead, RLUs (Raji cells [2]; probe 5 μM, 2,500 cells/well): 2,179,562 RLUs | Live, RLUs (Raji cells [2]; probe 5 μM, 2,500 cells/well): 317,452 RLUs | Dead/Live (Raji cells [2]; probe 5 μM, 2,500 cells/well): 8.2 | Dead, RLUs (Raji cells [2]; probe 5 μM, 5,000 cells/well): 3,826,655 RLUs | Live, RLUs (Raji cells [2]; probe 5 μM, 5,000 cells/well): 508,581 RLUs | Dead/Live (Raji cells [2]; probe 5 μM, 5,000 cells/well): 8.4 | Dead, RLUs (Raji cells [2]; probe 5 μM, 10,000 cells/well): 4,916,472 RLUs | Live, RLUs (Raji cells [2]; probe 5 μM, 10,000 cells/well): 672,232 RLUs | Dead/Live (Raji cells [2]; probe 5 μM, 10,000 cells/well): 7.9 | Dead, RLUs (Raji cells [2]; probe 5 μM, 20,000 cells/well): 3,314,700 RLUs | Live, RLUs (Raji cells [2]; probe 5 μM, 20,000 cells/well): 645,489 RLUs | Dead/Live (Raji cells [2]; probe 5 μM, 20,000 cells/well): 5.6 | cell viability measured with CellTiter-Glo (K562 cells): no decrease in cell viability
